Experimental data taken from the NIST ThermoML archive (doi:10.1021/je301294a).
± gives the expanded uncertainty stated by the source.

Conditions: Liquid, Closed cell (Static) method

In the case of `CCCCCCCCCC(=O)OCC` [ethyl decanoate], the “vapor or sublimation pressure” value (373.15 K) is reported as 0.5827 ± 0.036 kPa, the “vapor or sublimation pressure” value (383.15 K) is reported as 0.9771 ± 0.025 kPa and the “vapor or sublimation pressure” value (393.15 K) is reported as 1.586 ± 0.021 kPa. The “vapor or sublimation pressure” value (403.15 K) was 2.498 ± 0.027 kPa, the “vapor or sublimation pressure” value (413.15 K) was 3.829 ± 0.035 kPa and the “vapor or sublimation pressure” value (423.15 K) was 5.726 ± 0.048 kPa. For the same molecule, the “vapor or sublimation pressure” value (433.15 K) was 8.371 ± 0.066 kPa, the “vapor or sublimation pressure” value (443.15 K) was 11.99 ± 0.091 kPa and the “vapor or sublimation pressure” value (453.15 K) was 16.84 ± 0.12 kPa.

In the case of `CCCCCC(=O)OCC` [ethyl hexanoate], the “vapor or sublimation pressure” value (373.15 K) is reported as 11.35 ± 0.24 kPa, the “vapor or sublimation pressure” value (383.15 K) is reported as 16.69 ± 0.14 kPa and the “vapor or sublimation pressure” value (393.15 K) is reported as 23.94 ± 0.19 kPa. The “vapor or sublimation pressure” value (403.15 K) was 33.59 ± 0.27 kPa, the “vapor or sublimation pressure” value (413.15 K) was 46.18 ± 0.37 kPa and the “vapor or sublimation pressure” value (423.15 K) was 62.32 ± 0.49 kPa. The “vapor or sublimation pressure” value (433.15 K) was 82.69 ± 0.65 kPa, the “vapor or sublimation pressure” value (443.15 K) was 108.02 ± 0.85 kPa and the “vapor or sublimation pressure” value (453.15 K) was 139.11 ± 1.1 kPa.

For `CCCCCCCCCCCCCC(=O)OCC` [ethyl tetradecanoate], the “vapor or sublimation pressure” value (373.15 K) was 0.0326 ± 0.0025 kPa, the “vapor or sublimation pressure” value (383.15 K) was 0.0623 ± 0.0044 kPa and the “vapor or sublimation pressure” value (393.15 K) was 0.1143 ± 0.0078 kPa. For the same molecule, the “vapor or sublimation pressure” value (403.15 K) was 0.2019 ± 0.013 kPa, the “vapor or sublimation pressure” value (413.15 K) was 0.3448 ± 0.022 kPa and the “vapor or sublimation pressure” value (423.15 K) was 0.5712 ± 0.036 kPa. For the same molecule, the “vapor or sublimation pressure” value (433.15 K) was 0.9198 ± 0.024 kPa, the “vapor or sublimation pressure” value (443.15 K) was 1.443 ± 0.021 kPa and the “vapor or sublimation pressure” value (453.15 K) was 2.211 ± 0.025 kPa.

With `CCCCCCCCCCCCCC` [tetradecane] the “vapor or sublimation pressure” value (373.15 K) was 0.444 ± 0.028 kPa, the “vapor or sublimation pressure” value (383.15 K) was 0.7516 ± 0.02 kPa and the “vapor or sublimation pressure” value (393.15 K) was 1.23 ± 0.031 kPa. For the same molecule, the “vapor or sublimation pressure” value (403.15 K) was 1.954 ± 0.044 kPa, the “vapor or sublimation pressure” value (413.15 K) was 3.017 ± 0.065 kPa and the “vapor or sublimation pressure” value (423.15 K) was 4.543 ± 0.096 kPa. The “vapor or sublimation pressure” value (433.15 K) was 6.684 ± 0.14 kPa, the “vapor or sublimation pressure” value (443.15 K) was 9.627 ± 0.2 kPa and the “vapor or sublimation pressure” value (453.15 K) was 13.6 ± 0.1 kPa.
